The source made the active and inactive calls. The rule behind the calls is not given here.
Experiments:
[1] = Volume of distribution of CD1 mouse at 30 mg/kg, iv; type: ADME, organism-based; details: in vivo
[2] = Drug metabolism in rat hepatocytes assessed as beta-oxidation by measuring phase1 metabolite formation at 50 uM measured after 4 hrs; type: ADME, cell-based, Hepatocyte
[3] = Drug metabolism in human hepatocytes assessed as beta-oxidation by measuring phase1 metabolite formation at 50 uM measured after 4 hrs; type: ADME, cell-based, Hepatocyte
[4] = Half life in CD1 mouse at 100 mg/kg, po; type: ADME, organism-based; details: in vivo
[5] = Drug metabolism in Gottingen minipig urine assessed as HST5040-glycine metabolite formation at 10 mg/kg administered as single dose by LC/MS analysis; type: ADME, organism-based, Sus scrofa domesticus; details: pig, in vivo
[6] = Cmax in CD1 mouse at 30 mg/kg, po; type: ADME, organism-based; parameters: route oral, dose 30 mg/kg; details: in vivo
[7] = Reduction of propionyl carnitine in human hepatocytes derived from propionic acidemia patient pretreated for 30 mins followed by 13C-isoleucine addition and measured after 1 hr by MS/MS analysis; type: functional, cell-based; details: hepatocyte
[8] = target: Bile salt export pump (Homo sapiens, UniProt O95342); experiment: Inhibition of human BSEP assessed as reduction in BSEP-mediated taurocholate transport at 345 uM relative to control
[9] = target: T1, OAT1 (Homo sapiens, UniProt Q4U2R8); experiment: Inhibition of human OAT1 assessed as reduction in OAT1-mediated tenofovir transport at 14900 uM relative to control; details: not told, probe tenofovir
T1 sequence (Q4U2R8 whole entry): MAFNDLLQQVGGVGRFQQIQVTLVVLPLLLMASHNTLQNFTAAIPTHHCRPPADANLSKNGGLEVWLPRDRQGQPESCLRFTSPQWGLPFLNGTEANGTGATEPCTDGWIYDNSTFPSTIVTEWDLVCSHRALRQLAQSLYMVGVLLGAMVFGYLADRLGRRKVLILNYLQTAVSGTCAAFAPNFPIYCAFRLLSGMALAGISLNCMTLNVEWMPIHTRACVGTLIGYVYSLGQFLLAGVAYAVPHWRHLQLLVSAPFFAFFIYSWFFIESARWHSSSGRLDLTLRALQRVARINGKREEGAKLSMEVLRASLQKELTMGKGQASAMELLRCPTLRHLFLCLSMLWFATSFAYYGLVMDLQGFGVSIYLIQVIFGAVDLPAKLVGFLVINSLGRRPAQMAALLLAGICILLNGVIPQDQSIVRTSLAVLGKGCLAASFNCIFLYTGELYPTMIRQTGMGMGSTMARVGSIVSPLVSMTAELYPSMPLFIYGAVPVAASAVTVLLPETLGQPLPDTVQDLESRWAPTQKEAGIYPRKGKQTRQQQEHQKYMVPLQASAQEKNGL

[10] = Cmax in Sprague-Dawley rat at 10 mg/kg, po; type: ADME, organism-based; parameters: route oral, dose 10 mg/kg; details: in vivo
[11] = Half life in CD1 mouse at 30 mg/kg, iv; type: ADME, organism-based; details: in vivo
[12] = Dissociation constant, pKa of the compound; type: physicochemical
[13] = Drug metabolism in Gottingen minipig urine assessed as HST5040-carnitine metabolite formation at 10 mg/kg administered as single dose by LC/MS analysis; type: ADME, organism-based, Sus scrofa domesticus; details: pig, in vivo
[14] = Oral bioavailability in Sprague-Dawley rat at 10 mg/kg; type: ADME, organism-based; details: in vivo
[15] = Clearance in Sprague-Dawley rat at 10 mg/kg, iv; type: ADME, organism-based; details: in vivo
[16] = Drug metabolism in minipig assessed as beta-oxidation by measuring phase1 metabolite formation at 10 mg/kg administered single dose using radiolabeled compound; type: ADME, organism-based, Sus scrofa domesticus; details: pig, in vivo
[17] = Ratio of drug level in erythrocyte to plasma in Sprague-Dawley rat; type: ADME; details: erythrocytes and plasma
[18] = Drug excretion in Sprague-Dawley rat urine at 10 mg/kg, po using radiolabeled compound measured at 1 hr post dose; type: ADME, organism-based; details: in vivo
[19] = Half life in Sprague-Dawley rat at 200 mg/kg, po; type: ADME, organism-based; details: in vivo
[20] = AUC (0 to infinity) in CD1 mouse at 100 mg/kg, po; type: ADME, organism-based; parameters: route oral, time infinity, dose 100 mg/kg; details: in vivo
[21] = AUC (0 to infinity) in Sprague-Dawley rat at 50 mg/kg, po; type: ADME, organism-based; parameters: time infinity, route oral, dose 50 mg/kg; details: in vivo
[22] = Drug metabolism in cynomolgus monkey hepatocytes assessed as formation of 2,2-dimethylbutanoic acid-CoA incubated for 1 hrs by MS/MS analysis; type: ADME, cell-based; details: Macaca fascicularis, Hepatocyte
[23] = Reduction of CoASH in human hepatocytes derived from methylmalonic acidemia at 30 uM pretreated for 30 mins followed by 13C-isoleucine addition and measured after 1 hr by MS/MS analysis; type: functional, Hepatocyte; parameters: scale not given: the % may be the effect or the level left; details: time 90 min, 1.5 h
[24] = Protein binding in human plasma at 40 uM incubated for 4 hrs by equilibrium dialysis; type: ADME, cell-free
[25] = Drug metabolism in Sprague-Dawley rat plasma assessed as HST5040-glycine metabolite formation at 10 mg/kg administered as single dose using radiolabeled compound by LC/MS analysis; type: ADME, organism-based; details: in vivo
[26] = Ratio of drug level in liver to plasma in Sprague-Dawley rat at 10 mg/kg, po measured at 1 hr post dose; type: ADME, organism-based; details: liver (relative to plasma)
[27] = Reduction of acetyl-CoA in human hepatocytes pretreated for 30 mins followed by 13C-isoleucine addition and measured after 1 hr by MS/MS analysis; type: functional, Hepatocyte; parameters: scale not given: the % may be the effect or the level left; details: dose 30 µM, 0.5 h
[28] = Reduction of acetyl-CoA in human hepatocytes derived from methylmalonic acidemia patient at 30 uM pretreated for 30 mins followed by 13C-isoleucine addition and measured after 1 hr by MS/MS analysis relative to control; type: functional, Hepatocyte; parameters: scale not given: the % may be the effect or the level left; details: time 90 min, 1.5 h
[29] = Induction of toxicity in minipig assessed as induction of adverse effect at 300 mg/kg/day; type: organism-based, Sus scrofa domesticus; details: pig, in vivo
[30] = Drug metabolism in human hepatocytes assessed as formation of 2,2-dimethylbutanoic acid-CoA incubated for 1 hrs by MS/MS analysis; type: ADME, cell-based; details: Hepatocyte
[31] = Reduction of propionyl carnitine in human hepatocytes derived from methylmalonic acidemia patient at 30 uM pretreated for 30 mins followed by 13C-isoleucine addition and measured after 1 hr by MS/MS analysis relative to control; type: functional, Hepatocyte; parameters: scale not given: the % may be the effect or the level left; details: time 90 min, 1.5 h
[32] = Induction of toxicity in minipig assessed as increase in serum albumin concentration at 300 mg/kg/day; type: organism-based, Sus scrofa domesticus; details: pig, in vivo
[33] = Reduction of propionyl-CoA in human hepatocytes derived from methylmalonic acidemia at 30 uM pretreated for 30 mins followed by 13C-isoleucine addition and measured after 1 hr by MS/MS analysis relative to control; type: functional, Hepatocyte; parameters: scale not given: the % may be the effect or the level left; details: time 90 min, 1.5 h
[34] = target: Solute carrier family 22 member 1 (Homo sapiens) (UniProt O15245); experiment: Inhibition of human OCT1 assessed as reduction in OCT1-mediated metformin transport at 14900 uM relative to control
[35] = Half life in CD1 mouse at 300 mg/kg, po; type: ADME, organism-based; details: in vivo

Chain of Bile salt export pump (O95342 whole entry): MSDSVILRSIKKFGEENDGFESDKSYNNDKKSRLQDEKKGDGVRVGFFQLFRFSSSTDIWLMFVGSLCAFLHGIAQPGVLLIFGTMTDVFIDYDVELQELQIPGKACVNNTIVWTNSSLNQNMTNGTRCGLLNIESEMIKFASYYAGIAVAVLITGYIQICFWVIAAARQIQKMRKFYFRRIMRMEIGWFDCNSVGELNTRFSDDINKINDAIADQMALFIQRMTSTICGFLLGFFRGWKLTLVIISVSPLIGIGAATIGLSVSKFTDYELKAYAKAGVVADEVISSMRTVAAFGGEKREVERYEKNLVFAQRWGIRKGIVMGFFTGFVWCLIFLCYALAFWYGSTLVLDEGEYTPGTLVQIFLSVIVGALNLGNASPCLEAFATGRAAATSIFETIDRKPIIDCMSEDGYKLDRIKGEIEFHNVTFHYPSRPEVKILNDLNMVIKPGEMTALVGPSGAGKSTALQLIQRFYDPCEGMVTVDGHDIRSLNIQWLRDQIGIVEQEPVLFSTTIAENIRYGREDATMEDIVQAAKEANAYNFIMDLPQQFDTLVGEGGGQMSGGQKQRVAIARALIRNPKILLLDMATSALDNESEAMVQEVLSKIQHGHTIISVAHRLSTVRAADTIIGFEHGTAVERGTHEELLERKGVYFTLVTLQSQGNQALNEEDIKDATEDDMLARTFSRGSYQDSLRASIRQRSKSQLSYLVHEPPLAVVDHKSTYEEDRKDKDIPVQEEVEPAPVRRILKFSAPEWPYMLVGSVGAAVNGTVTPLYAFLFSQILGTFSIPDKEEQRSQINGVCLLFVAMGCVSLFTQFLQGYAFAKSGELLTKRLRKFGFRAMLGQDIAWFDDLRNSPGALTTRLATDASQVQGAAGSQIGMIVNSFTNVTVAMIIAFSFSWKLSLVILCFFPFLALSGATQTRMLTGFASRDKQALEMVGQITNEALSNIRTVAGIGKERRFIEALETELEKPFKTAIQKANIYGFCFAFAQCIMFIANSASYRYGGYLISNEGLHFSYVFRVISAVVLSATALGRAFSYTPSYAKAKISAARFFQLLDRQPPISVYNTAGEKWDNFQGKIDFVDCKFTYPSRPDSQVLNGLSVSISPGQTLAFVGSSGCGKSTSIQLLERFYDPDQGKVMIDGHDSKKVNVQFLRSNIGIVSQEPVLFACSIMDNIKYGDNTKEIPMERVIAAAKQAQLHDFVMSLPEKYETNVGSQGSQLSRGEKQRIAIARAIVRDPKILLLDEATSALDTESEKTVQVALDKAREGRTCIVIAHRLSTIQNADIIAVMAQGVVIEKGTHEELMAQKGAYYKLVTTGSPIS
Chain of Solute carrier family 22 member 1 (Homo sapiens) (O15245 whole entry, looked up): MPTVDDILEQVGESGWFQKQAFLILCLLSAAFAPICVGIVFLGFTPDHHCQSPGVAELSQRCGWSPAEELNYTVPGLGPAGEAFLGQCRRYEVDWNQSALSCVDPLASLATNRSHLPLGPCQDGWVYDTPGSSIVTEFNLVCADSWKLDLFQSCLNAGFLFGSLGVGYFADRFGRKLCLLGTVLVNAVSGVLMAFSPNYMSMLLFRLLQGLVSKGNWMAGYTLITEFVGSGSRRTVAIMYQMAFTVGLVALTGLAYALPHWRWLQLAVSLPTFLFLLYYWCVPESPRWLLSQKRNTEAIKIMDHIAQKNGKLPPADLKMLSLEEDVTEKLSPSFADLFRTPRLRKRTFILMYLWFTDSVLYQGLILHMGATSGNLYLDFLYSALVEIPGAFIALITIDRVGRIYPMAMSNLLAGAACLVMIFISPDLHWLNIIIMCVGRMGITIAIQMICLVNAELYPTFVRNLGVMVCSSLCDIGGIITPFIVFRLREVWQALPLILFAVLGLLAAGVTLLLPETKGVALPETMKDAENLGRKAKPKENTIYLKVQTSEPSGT

- Vd [1]: 0.469 L/kg
- Drug metabolism [2]: Metabolite_Notdetected
- Drug metabolism [3]: Metabolite_Notdetected
- half-life [4]: 1.09 h
- Drug metabolism [5]: Metabolite_Detected
- Cmax [6]: 33700 ng/mL
- inhibition at 14900 µM [9]: 83.2%
- Cmax [10]: 4270 ng/mL
- half-life [11]: 0.831 h
- pKa [12]: 4.4
- Drug metabolism [13]: Metabolite_Detected
- bioavailability [14]: 57.1%
- clearance [15]: 17.3 mL/min/kg
- Drug metabolism [16]: Metabolite_Notdetected
- Kp [17]: 0.649
- Drug excretion [18]: 72%
- half-life [19]: 2.73 h
- AUC(0-inf) [20]: 219 µg·h/mL
- AUC(0-inf) [21]: 33.1 µg·h/mL
- PPB [24]: 0%
- Drug metabolism [25]: Metabolite_Detected
- Kp at 1 h [26]: 4.6
- inhibition [34]: inactive
- half-life [35]: 1.91 h
Structure (SMILES): CCC(C)(C)C(=O)O [DIMEBUTIC ACID]
- EC50 [7]: 2.6 µM
- inhibition (INH) [8]: Not Active
- EC50 [22]: 46.2 µM
- Activity [23]: -22.3%
- Activity [27]: 20%
- Activity [28]: 13.5%
- Activity [29]: Non-Toxic
- EC50 [30]: 5.9 µM
- Activity [31]: -65.9%
- Activity [32]: Toxic
- Activity [33]: -74.2%
